EP0326329B1, “Quinazoline derivatives useful as insecticides” (Dow AgroSciences LLC, priority 1988, dated 1989)

Tests used:
Assay type in all cases: in vivo
[1] = test system: Botrytis cinerea (gray mold); assay: Greenhouse Test 1, foliar spray fungicide screen (GRAY MOLD), host grape berries; settings: disease control rating, 400 ppm (+++ at 100 ppm)
[2] = test system: Puccinia recondita tritici (leaf rust); assay: Greenhouse Test 1, foliar spray fungicide screen (LEAF RUST), host wheat; settings: disease control rating, 400 ppm (+++ at 100 ppm)
[3] = test system: Pseudoperonospora cubensis (downy mildew); assay: Greenhouse Test 1, foliar spray fungicide screen (DOWN MDEW), host squash; settings: disease control rating, 400 ppm (+++ at 100 ppm)
Podosphaera leucotricha = assay: Fungicide field tests; settings: crop: apple
Excerpt: (§1) Selected compounds were field tested on various crops against a variety of pathogens. […]

[4] = test system: Erysiphe graminis tritici; assay: Fungicide field tests; settings: crop: wheat
Excerpt: as §1

Alternaria brassicae = assay: Fungicide field tests; settings: crop: rape
Excerpt: as §1

Plasmopara viticola = assay: Fungicide field tests; settings: crop: grape
Excerpt: as §1

Septoria nodorum = assay: Fungicide field tests; settings: crop: wheat
Excerpt: as §1

Pyrenophora teres = assay: Fungicide field tests; settings: crop: barley
Excerpt: as §1

Erysiphe graminis hordei = assay: Fungicide field tests; settings: crop: barley
Excerpt: as §1

[5] = test system: Pseudocercosporella herpotrichoides; assay: Fungicide field tests; settings: crop: wheat
Excerpt: as §1

Uncinula necator = assay: Fungicide field tests; settings: crop: grapes
Excerpt: as §1

Rhynchosporium secalis = assay: Fungicide field tests; settings: crop: barley
Excerpt: as §1

Sphaerotheca fuliginea = assay: Fungicide field tests; settings: crop: cucumber
Excerpt: as §1

[6] = test system: Septoria tritici (leaf blotch); assay: Greenhouse Test 1, foliar spray fungicide screen (LEAF BLOT), host wheat; settings: disease control rating, 400 ppm (+++ at 100 ppm)
[7] = test system: Southern corn rootworm (Diabrotica undecimpuctata howardi Barber); assay: Mite/insect screen, soil treatment (CRW); settings: percent mortality, soil treatment; for mortality at 12 ppm / mortality at 24 ppm: Diabrotica, read-out: CRW RESULTS %; for mortality at 24 ppm: CRW rate 24.00 ppm
Outline: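 Five 2–3 instar larvae were placed on dry sandy soil with a presoaked corn seed after the soil had received 1 mL of compound solution and dried 6–12 h; cups were kept capped at 23°C. Mortality (%) and phytotoxicity were read after standard exposure. Formulation: acetone/alcohol with emulsifiers, water-diluted.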

[8] = test system: melon aphids (Aphis gossypii Glover); assay: Mite/insect screen, sprayed squash cotyledons (MA); settings: percent mortality; for mortality at 200 ppm / mortality at 400 ppm: Aphis gossypii, read-out: MA RESULTS %; for mortality at 400 ppm: spray rate 400 ppm
Outline: (§2)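 Water-diluted formulations of each compound (acetone/alcohol 50:50 with 23 g/L and 13 g/L emulsifier blends) are sprayed over both leaf faces to runoff. After a standard exposure period, percent kill and phytotoxicity are recorded.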

[9] = test system: Cercospora beticola (leaf spot); assay: Greenhouse Test 1, foliar spray fungicide screen (LEAF SPOT), host sugar beet; settings: disease control rating, 400 ppm (+++ at 100 ppm)
[10] = test system: Erysiphe graminis tritici (powdery mildew); assay: Greenhouse Test 1, foliar spray fungicide screen (POWD MDEW), host wheat; settings: disease control rating, 400 ppm (+++ at 100 ppm)
[11] = test system: Twospotted spider mites (Tetranychus urticae Koch); assay: Mite/insect screen, sprayed squash cotyledons (SM); settings: percent mortality; for mortality at 200 ppm / mortality at 400 ppm: Tetranychus urticae, read-out: SM RESULTS %; for mortality at 400 ppm: spray rate 400 ppm
Outline: as §2

[12] = test system: Venturia inaequalis (apple scab); assay: Greenhouse Test 1, foliar spray fungicide screen (APPL SCAB), host apple seedling; settings: disease control rating, 400 ppm (+++ at 100 ppm)
[13] = test system: Pyricularia oryzae (rice blast); settings: disease control rating, foliar spray, host rice; 400 ppm (+++ at 100 ppm)
[14] = test system: southern armyworm (Spodopetra eridania Cramer); assay: Mite/insect screen, sprayed squash leaves (SAW); settings: Spodoptera eridania, percent mortality, read-out: SAW RESULTS %; for mortality at 200 ppm: spray rate 200 ppm; for mortality at 400 ppm: spray rate 400 ppm
Outline: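 Acetone/alcohol (50:50) + emulsifier blends 23 g/L and 13 g/L; water dilution to test concs. Spray both leaf surfaces to runoff, dry 1 h. For armyworm, 2 excised uninfested leaves into Petri dish with larvae. Readout: % mortality, phytotoxicity.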

Phytophthora infestans = settings: crop: potato
potato leafhopper = assay: Mite and insect field trials; settings: plant: alfalfa (Lucerne)
Procedure: (§3) 4-[2-[4-(t-butyl)phenyl]ethoxy]quinazoline and 4-[2-(1,1'-biphenyl)-4 biphenyl)-4-ylethoxy]quinazoline were evaluated against a variety of mite and insect species in field trials.

green cloverworm = assay: Mite and insect field trials; settings: plant: alfalfa (Lucerne)
Procedure: as §3

wheat aphid = assay: Mite and insect field trials; settings: plant: wheat
Procedure: as §3

pea aphid = assay: Mite and insect field trials
Procedure: as §3

twospotted spider mite = assay: Mite and insect field trials
Procedure: as §3

grape leafhopper = assay: Mite and insect field trials; settings: plant: grape (European)
Procedure: as §3

yellow hickory aphid = assay: Mite and insect field trials; settings: plant: pecan nut
Procedure: as §3

green peach aphid = assay: Mite and insect field trials
Procedure: as §3

tarnished plant bug = assay: Mite and insect field trials; settings: plant: alfalfa (Lucerne)
Procedure: as §3

bean aphid = assay: Mite and insect field trials; settings: plant: bean, faba broad
Procedure: as §3

apple rust mite = assay: Mite and insect field trials; settings: plant: apples
Procedure: as §3

potato aphid = assay: Mite and insect field trials; settings: plant: turnip
Procedure: as §3

black citrus aphid = assay: Mite and insect field trials; settings: plant: lemon
Procedure: as §3

cotton aphid = assay: Mite and insect field trials; settings: plant: cotton
Procedure: as §3

European red mite = assay: Mite and insect field trials; settings: plant: apples
Procedure: as §3

thrips = assay: Mite and insect field trials; settings: plant: privet
Procedure: as §3

greenhouse thrips = assay: Mite and insect field trials; settings: plant: azaleas
Procedure: as §3

white apple leafhopper = assay: Mite and insect field trials; settings: plant: apples
Procedure: as §3

Dawson-hop aphid = assay: Mite and insect field trials; settings: plant: hops
Procedure: as §3

grape thrips = assay: Mite and insect field trials; settings: plant: grape (European)
Procedure: as §3

glasshouse whitefly = assay: Mite and insect field trials; settings: tested on tomato
Procedure: as §3

cereal aphid = assay: Mite and insect field trials; settings: plant: barley
Procedure: as §3

rosy apple aphid = assay: Mite and insect field trials; settings: plant: apples
Procedure: as §3

apple aphid = assay: Mite and insect field trials; settings: plant: apples
Procedure: as §3

c1ccc2cc(CCNc3ncnc4ccccc34)ccc2c1 [Example 53, N-[2-(2-naphthyl)ethyl]-4-quinazolinamine]
GRAY MOLD [1]: - (- = 0-19% control at 400 ppm)
LEAF RUST [2]: +++ (+++ = 90-100% control at 100 ppm)
DOWN MDEW [3]: +++ (+++ = 90-100% control at 100 ppm)
pathogen against which compound demonstrated activity in field tests (Podosphaera leucotricha): Podosphaera leucotricha
pathogen against which compound demonstrated activity in field tests [4]: Erysiphe graminis tritici
pathogen against which compound demonstrated activity in field tests (Alternaria brassicae): Alternaria brassicae
pathogen against which compound demonstrated activity in field tests (Plasmopara viticola): Plasmopara viticola
pathogen against which compound demonstrated activity in field tests (Septoria nodorum): Septoria nodorum
pathogen against which compound demonstrated activity in field tests (Pyrenophora teres): Pyrenophora teres
pathogen against which compound demonstrated activity in field tests (Erysiphe graminis hordei): Erysiphe graminis hordei
pathogen against which compound demonstrated activity in field tests [5]: Pseudocercosporella herpotrichoides
pathogen against which compound demonstrated activity in field tests (Uncinula necator): Uncinula necator
pathogen against which compound demonstrated activity in field tests (Rhynchosporium secalis): Rhynchosporium secalis
pathogen against which compound demonstrated activity in field tests (Sphaerotheca fuliginea): Sphaerotheca fuliginea
LEAF BLOT [6]: +++ (+++ = 90-100% control at 100 ppm)
mortality at 12 ppm ([7]; CRW rate 12.00 ppm): 0%
CRW RESULTS % ([7]; CRW rate 12.00 ppm): 0%
mortality at 200 ppm ([8]; spray rate 200 ppm): 0%
MA RESULTS % ([8]; spray rate 200 ppm): 0%
LEAF SPOT [9]: - (- = 0-19% control at 400 ppm)
POWD MDEW [10]: +++ (+++ = 90-100% control at 100 ppm)
mortality at 200 ppm ([11]; spray rate 200 ppm): 0%
SM RESULTS % ([11]; spray rate 200 ppm): 0%
APPL SCAB [12]: + (+ = 20-89% control at 400 ppm)
RICE BLAST [13]: +++ (+++ = 90-100% control at 100 ppm)

Clc1ccc(CCOc2ncnc3ccccc23)cc1 [Example 5, 4-[2-(4-chlorophenyl)ethoxy]quinazoline]
GRAY MOLD [1]: - (- = 0-19% control at 400 ppm)
LEAF RUST [2]: +++ (+++ = 90-100% control at 100 ppm)
DOWN MDEW [3]: + (+ = 20-89% control at 400 ppm)
pathogen against which compound demonstrated activity in field tests (Plasmopara viticola): Plasmopara viticola
mortality at 200 ppm [14]: 20%
mortality at 400 ppm [14]: 0%
LEAF BLOT [6]: ++ (++ = 90-100% control at 400 ppm)
mortality at 12 ppm ([7]; CRW rate 12.00 ppm): 0%
mortality at 24 ppm [7]: 0%
mortality at 200 ppm ([8]; spray rate 200 ppm): 100%
mortality at 400 ppm [8]: 100%
pathogen against which compound demonstrated activity in field tests (Phytophthora infestans): Phytophthora infestans
LEAF SPOT [9]: +++ (+++ = 90-100% control at 100 ppm)
POWD MDEW [10]: +++ (+++ = 90-100% control at 100 ppm)
mortality at 200 ppm ([11]; spray rate 200 ppm): 100%
mortality at 400 ppm [11]: 50%
APPL SCAB [12]: +++ (+++ = 90-100% control at 100 ppm)
RICE BLAST [13]: +++ (+++ = 90-100% control at 100 ppm)

c1ccc(-c2ccc(CCOc3ncnc4ccccc34)cc2)cc1 [Example 85, 4-[2-(1,1'-biphenyl)-4-ylethoxy]quinazoline]
GRAY MOLD [1]: - (- = 0-19% control at 400 ppm)
LEAF RUST [2]: +++ (+++ = 90-100% control at 100 ppm)
DOWN MDEW [3]: +++ (+++ = 90-100% control at 100 ppm)
mite or insect species against which they showed activity in field trials (potato leafhopper): potato leafhopper
mite or insect species against which they showed activity in field trials (green cloverworm): green cloverworm
mite or insect species against which they showed activity in field trials (wheat aphid): wheat aphid
mite or insect species against which they showed activity in field trials (pea aphid; plant: alfalfa (Lucerne)): pea aphid
mite or insect species against which they showed activity in field trials (pea aphid; plant: pea, garden (English)): pea aphid
mite or insect species against which they showed activity in field trials (twospotted spider mite; plant: azaleas): twospotted spider mite
mite or insect species against which they showed activity in field trials (twospotted spider mite; plant: broccoli): twospotted spider mite
mite or insect species against which they showed activity in field trials (twospotted spider mite; plant: plum (Japanese)): twospotted spider mite
mite or insect species against which they showed activity in field trials (grape leafhopper): grape leafhopper
mite or insect species against which they showed activity in field trials (yellow hickory aphid): yellow hickory aphid
mite or insect species against which they showed activity in field trials (green peach aphid; plant: apples): green peach aphid
mite or insect species against which they showed activity in field trials (green peach aphid; plant: sugar beet): green peach aphid
mite or insect species against which they showed activity in field trials (tarnished plant bug): tarnished plant bug
mite or insect species against which they showed activity in field trials (bean aphid): bean aphid
mite or insect species against which they showed activity in field trials (apple rust mite): apple rust mite
mite or insect species against which they showed activity in field trials (potato aphid): potato aphid
mite or insect species against which they showed activity in field trials (black citrus aphid): black citrus aphid
mite or insect species against which they showed activity in field trials (cotton aphid): cotton aphid
mite or insect species against which they showed activity in field trials (European red mite): European red mite
mite or insect species against which they showed activity in field trials (thrips): thrips
mite or insect species against which they showed activity in field trials (greenhouse thrips): greenhouse thrips
mite or insect species against which they showed activity in field trials (white apple leafhopper): white apple leafhopper
mite or insect species against which they showed activity in field trials (Dawson-hop aphid): Dawson-hop aphid
mite or insect species against which they showed activity in field trials (grape thrips): grape thrips
activity against glasshouse whitefly in field trials (glasshouse whitefly): showing activity
mite or insect species against which they showed activity in field trials (cereal aphid): cereal aphid
mite or insect species against which they showed activity in field trials (rosy apple aphid): rosy apple aphid
mite or insect species against which they showed activity in field trials (apple aphid): apple aphid
mortality at 200 ppm [14]: 10%
mortality at 400 ppm [14]: 80%
LEAF BLOT [6]: +++ (+++ = 90-100% control at 100 ppm)
mortality at 12 ppm ([7]; CRW rate 12.00 ppm): 0%
mortality at 24 ppm [7]: 0%
mortality at 200 ppm ([8]; spray rate 200 ppm): 100%
mortality at 400 ppm [8]: 100%
LEAF SPOT [9]: - (- = 0-19% control at 400 ppm)
POWD MDEW [10]: ++ (++ = 90-100% control at 400 ppm)
mortality at 200 ppm ([11]; spray rate 200 ppm): 100%
mortality at 400 ppm [11]: 100%
APPL SCAB [12]: - (- = 0-19% control at 400 ppm)
RICE BLAST [13]: + (+ = 20-89% control at 400 ppm)
